Test results reported in patent publication US20180125835A1, “Dosage and Use of an A2A Antagonist” (H. Lundbeck A/S, priority 2014, published 2018).

What was measured:
A2A receptor [1] = target: A2A receptor (Callithrix jacchus, UniProt A0A8I3X4X6); assay: Adenosine receptor binding affinity, marmoset A2A
A2A receptor [2] = target: T1, A2A receptor (Rattus norvegicus, UniProt P30543); assay: Adenosine receptor binding affinity, rat A2A
[3] = Plasma exposure in Long Evans rats; assay type: in vivo; settings: rat
Method: A minimum of 400 μL of whole blood was collected via saphenous bleed at 10 min, 20 min, 60 min, and 120 min post drug administration, i.e. at time points that coincided with the activity study (and phase 2: 5-choice experiments). Blood was collected and transferred into K3 EDTA tubes. The tubes were allowed to sit at room temperature for approximately 2 minutes and placed on wet ice until centrifugation. Blood was spun in the centrifuge with speed of 3,500 rpm for 15 minutes at 4° C. Plasma was separated and placed into a labeled 0.75 ml Matrix tube and capped. Plasma tubes were placed into a Matrix rack and stored in a −80° C. freezer. At the final time point (120 minutes post drug administration) following blood collection by cardiac puncture, the brain tissue was extracted and hemisected along the midline. One hemisphere, without the cerebellum, was placed in the 15 ml pre-weighed brain tube while the other portion was disposed. The brain tubes were weighed, frozen on dry ice, and stored at −80 C. Brain tissue and plasma samples were shipped on dry ice to Sponsor. Blood and brain levels of compound 504 were to be conducted by the Sponsor.

A2A receptor [4] = target: T1, A2A receptor; assay: Reversal of CGS21680-induced hypolocomotion; assay type: in vivo
Method: Doses of 0.01, 0.03, 0.06, 0.1 mg/kg were tested in a dosage form of 0.5 w/v % methyl cellulose 400 (viscosity: 400 cP) in distilled water. Drug was administered at a volume of 5 ml/kg, oral.
Sixty (60) male Long Evans rats, 3 months age, were allocated into 6 groups of N=10 rats per group.
The activity test, monitoring the rat's spontaneous activity was measured in the automated
Med Associates activity test chamber for 20 minutes. The tracking arena was of dimension 17′W×17″L×12″H, sensor bars were secured 1″ above the floor to track distance travelled, and a second set of sensor bars were placed 6″ above the floor to measure vertical movement and rearing activity. The parameters set on the tracking software were: resolution—50 ms, box size—4 beams, resting delay—500 ms, and ambulatory trigger—2.

Long Evans rats [5] = assay: Locomotor activity in habituated rats; assay type: in vivo, rat
Excerpt: Sixteen (16) male Long Evans rats were habituated to Med Associates test activity chambers (17″ W×17″ L×12″ H) over three, 90-minute sessions. […] Total distance travelled and rearing counts for the total session were the primary measure.

A2A receptor [6] = target: A2A receptor (Homo sapiens, UniProt P29274); assay: biochemical
A2A receptor [7] = target: A2A receptor (Canis lupus familiaris, UniProt P11617); assay: Adenosine receptor binding affinity, dog A2A
Long Evans rats [8] = assay: 5-choice serial reaction time task (5-CSRTT); assay type: in vivo, rat
Excerpt: (A) Testing under standard conditions, i.e. equivalent to final conditions to which the animals were trained, i.e. stimulus duration (SD) 0.75 seconds (s), inter-trial interval (ITI) 5 s, 100 trials. The purpose of this condition being to measure drug effect on performance under standard conditions. (B) Testing under conditions of extended (long) ITI, i.e. low event rate, SD 0.3 s, ITI 5, 7.5, 10 s, 120 trials. The purpose of this condition being to measure drug effect on performance under lower event rate requiring the animal to delay its responding. (C) Testing under conditions of short ITI, i.e. high event rate, SD 0.3 s, ITI 3, 4, 5 s, 120 trials. The purpose of this condition to measure drug effect on performance under high event rate requiring the animal to rapidly process sensory information. (D) Testing under conditions of extended trials, i.e. SD 0.3 s, ITI 5 s, 250 trials. The purpose of this condition to measure drug effect on performance under extended trials, testing sustained attention or vigilance.
Sixteen (16) experimentally naïve, male Long Evans rats were trained to asymptotic performance in the 5-CSRTT over a period of approximately 2-3 months. The rats were trained to final stimulus duration (SD) of 0.75 s, 5 s inter-trial interval (ITI), 5 s limited hold (LH), 100 trials per session. Target performance levels under these conditions was in the range of >80% accuracy and <20% omissions.
Once the group of animals were trained, multiple drug studies according to various experimental tasks (see table 2 below) was tested in the same cohort of rats. […] The study design was made up of 4 experiments, with each experiment 2-3 weeks in duration and a 1 week intervening period between each experiment.

A1 receptor [9] = target: T2, A1 receptor (Canis lupus familiaris, UniProt P11616); assay: Adenosine receptor binding affinity, dog A1
T2 sequence (P11616 1-326): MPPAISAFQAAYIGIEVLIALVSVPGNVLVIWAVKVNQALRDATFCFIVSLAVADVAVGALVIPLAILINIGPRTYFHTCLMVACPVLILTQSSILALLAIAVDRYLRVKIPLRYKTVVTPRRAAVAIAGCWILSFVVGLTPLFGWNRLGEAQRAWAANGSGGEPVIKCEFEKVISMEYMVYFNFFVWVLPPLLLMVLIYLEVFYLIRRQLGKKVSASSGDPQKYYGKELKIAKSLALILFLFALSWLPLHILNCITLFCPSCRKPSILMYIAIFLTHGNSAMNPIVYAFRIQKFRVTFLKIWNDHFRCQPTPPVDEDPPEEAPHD

A1 receptor [10] = target: T3, A1 receptor (Homo sapiens, UniProt P30542); assay: Adenosine receptor binding affinity, human A1
T3 sequence (P30542 1-326): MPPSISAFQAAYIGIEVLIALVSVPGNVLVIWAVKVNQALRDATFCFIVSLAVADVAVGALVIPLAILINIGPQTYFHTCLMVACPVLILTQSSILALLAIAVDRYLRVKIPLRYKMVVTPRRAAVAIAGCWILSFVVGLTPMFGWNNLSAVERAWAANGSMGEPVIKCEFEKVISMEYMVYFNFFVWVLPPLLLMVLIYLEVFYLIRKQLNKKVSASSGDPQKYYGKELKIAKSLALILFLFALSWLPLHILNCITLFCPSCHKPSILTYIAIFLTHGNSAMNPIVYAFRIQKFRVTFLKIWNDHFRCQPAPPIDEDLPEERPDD

T1 sequence (P30543 whole entry): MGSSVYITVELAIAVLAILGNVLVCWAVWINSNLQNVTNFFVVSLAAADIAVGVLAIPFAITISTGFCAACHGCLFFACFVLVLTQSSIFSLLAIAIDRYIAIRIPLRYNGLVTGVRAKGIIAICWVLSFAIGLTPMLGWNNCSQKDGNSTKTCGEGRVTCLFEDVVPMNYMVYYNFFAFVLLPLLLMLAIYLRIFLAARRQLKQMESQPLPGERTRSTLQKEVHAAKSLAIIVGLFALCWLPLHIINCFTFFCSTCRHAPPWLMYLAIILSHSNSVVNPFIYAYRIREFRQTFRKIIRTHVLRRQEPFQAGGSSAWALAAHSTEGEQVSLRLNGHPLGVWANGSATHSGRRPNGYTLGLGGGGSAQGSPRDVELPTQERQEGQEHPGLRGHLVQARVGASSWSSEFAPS
Sequence of A2A receptor (Canis lupus familiaris, UniProt P11617) (P11617 whole entry): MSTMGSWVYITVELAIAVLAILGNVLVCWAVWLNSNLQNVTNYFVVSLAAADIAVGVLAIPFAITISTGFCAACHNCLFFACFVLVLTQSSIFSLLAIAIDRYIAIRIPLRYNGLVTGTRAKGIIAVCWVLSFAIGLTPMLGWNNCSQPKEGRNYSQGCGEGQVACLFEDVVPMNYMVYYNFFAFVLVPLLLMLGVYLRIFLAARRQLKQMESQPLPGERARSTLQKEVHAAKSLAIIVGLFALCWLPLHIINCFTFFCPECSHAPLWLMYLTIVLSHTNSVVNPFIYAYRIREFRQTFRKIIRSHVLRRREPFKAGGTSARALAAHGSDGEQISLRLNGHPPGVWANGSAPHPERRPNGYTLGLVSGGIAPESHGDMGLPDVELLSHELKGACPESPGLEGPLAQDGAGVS
Sequence of A2A receptor (Homo sapiens, UniProt P29274) (P29274 whole entry): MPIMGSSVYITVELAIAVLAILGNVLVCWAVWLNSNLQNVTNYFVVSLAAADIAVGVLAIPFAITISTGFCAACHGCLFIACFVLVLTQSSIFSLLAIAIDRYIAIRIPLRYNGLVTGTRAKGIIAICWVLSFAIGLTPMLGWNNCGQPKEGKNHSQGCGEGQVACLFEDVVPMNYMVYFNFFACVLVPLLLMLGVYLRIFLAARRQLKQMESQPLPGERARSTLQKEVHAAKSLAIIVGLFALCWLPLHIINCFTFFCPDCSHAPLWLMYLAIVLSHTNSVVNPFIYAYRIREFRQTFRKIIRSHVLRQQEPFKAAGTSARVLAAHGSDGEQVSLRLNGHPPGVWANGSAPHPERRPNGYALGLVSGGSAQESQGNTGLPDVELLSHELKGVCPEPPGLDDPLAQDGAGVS
Sequence of A2A receptor (Callithrix jacchus, UniProt A0A8I3X4X6) (A0A8I3X4X6 1-410): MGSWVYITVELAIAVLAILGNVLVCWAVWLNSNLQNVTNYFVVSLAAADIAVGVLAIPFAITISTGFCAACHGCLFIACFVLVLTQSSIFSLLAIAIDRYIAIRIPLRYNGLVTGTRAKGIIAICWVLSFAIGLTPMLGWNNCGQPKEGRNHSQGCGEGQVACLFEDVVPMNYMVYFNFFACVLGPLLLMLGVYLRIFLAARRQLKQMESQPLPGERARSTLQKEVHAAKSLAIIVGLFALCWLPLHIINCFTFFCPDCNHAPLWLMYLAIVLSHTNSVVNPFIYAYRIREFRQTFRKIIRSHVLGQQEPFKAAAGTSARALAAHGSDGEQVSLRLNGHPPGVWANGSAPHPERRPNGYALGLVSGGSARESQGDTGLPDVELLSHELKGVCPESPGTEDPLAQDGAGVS

Compound: Cc1ccc(C(=O)Nc2nc(-c3ccco3)c(C(=O)C3CCOCC3)s2)cn1 [Compound 504]
- Ki (A2A receptor [1]): 0.113 ± 0.0046 nM
- Ki (A2A receptor [2]): 0.1 ± 0.0072 nM
- plasma concentrations ([3]; oral 0.01-0.1 mg/kg): 100 to 450 ng/mL
- plasma levels ([3]; oral 0.03-0.1 mg/kg, 60 min and 90 min sampling): 150 to 400 ng/mL
- reversal of CGS-induced hypolocomotion (A2A receptor [4]; 0.1 mg/kg oral): completely reversed
- reversal of CGS-hypolocomotion (distance travelled, rearing, ambulatory episodes) (A2A receptor [4]; 0.06 and 0.1 mg/kg doses): significantly reversed
- ED50 (A2A receptor [4]; rat, po, read-out: ED50 for antagonism of the CGS-hypolocomotion): ~0.06 mg/kg
- locomotor activity (distance travelled and rearing counts) (Long Evans rats [5]; 0.01-1 mg/kg oral, 90 min test session): dose related increase
- timecourse of locomotor activity changes (Long Evans rats [5]; 90 min session, all doses): peaked during the first 10 min timebin
- dose at which magnitude of locomotor effect plateaued (Long Evans rats [5]; oral, 90 min session): 0.06 to 0.1 mg/kg
- effect size on locomotor activity compared with amphetamine (1 mg/kg IP) (Long Evans rats [5]; same study): significantly less
- Ki (A2A receptor [6]): 0.118 ± 0.0023 nM
- Ki (A2A receptor [7]): 0.283 ± 0.0269 nM
- correct trials completed by all rats in Bin 5 (Long Evans rats [8]; extended 250 trials, 0.1 mg/kg): at least 13
- decline in % correct and number of correct responses, increase in omissions over Bins 4 and 5 (Long Evans rats [8]; extended 250 trials, 0.03-0.1 mg/kg oral, particularly 0.06-0.1 mg/kg): protected against the decline
- premature responses (Long Evans rats [8]; long ITI, 0.06 mg/kg oral): increased
- accuracy under long ITI (Long Evans rats [8]; long ITI, 0.06 mg/kg oral, P=0.09): non-significant trend of compound 504 to reduce accuracy
- performance in terms of choice accuracy (Long Evans rats [8]; short ITI, 0.03-0.06 mg/kg oral, particularly at 3 s ITI): improved performance
- % correct, # incorrect responses, omissions, premature responses (Long Evans rats [8]; short ITI, averaged over the multiple ITI): improving performance on each measure
- other measures (% correct, # correct/incorrect responses, omissions, magazine latency) (Long Evans rats [8]; standard conditions): unaffected
- speed of responding (correct latency) (Long Evans rats [8]; standard conditions, doses 0.03-0.1 mg/kg oral): significantly increased speed of responding
- premature responding (Long Evans rats [8]; standard conditions, significant only at 0.1 mg/kg): increased premature responding
- Ki (A1 receptor [9]): 450 ± 51.1 nM
- Ki (A1 receptor [10]): 103 ± 18.4 nM
